# Patent EP2322514A1, “Homoglutamic acid and glutamic acid derivatives” (Bayer Schering Pharma Aktiengesellschaft, priority 2009, dated 2011)
# Tested on: NSCLC tumor cells (NCl-H460)
# Test: cell competition experiment: uptake of 3H-glutamic acid into tumor cells
# Assay type: cell-based
# Conditions: NCI-H460 cells, 10 min incubation with 1 µci 3H-glutamic acid in PBS-buffer, test compound 1 mM (excess)
# Procedure: Figure 1: Examination of biological activity of (2S)-2-Amino-7-fluoro-4-phosphonoheptanoic acid in a cell competition experiment. (NCI-H460 cells, 10 min incubation with 1 µci 3H-glutamic acid in PBS-buffer, concentration of (2S)-2-Amino-7-fluoro-4-phosphonoheptanoic acid 1 mM).
# The ability of compounds from the present invention to compete with uptake of glutamic acid into tumor cells was examined. Therefore, NSCLC tumor cells (NCl-H460) were co-incubated with 3H-labeled glutamic acid and (2S)-2-Amino-7-fluoro-4-phosphonoheptanoic acid. This compound was used in excess (1 mM) to the tracer 3H-glutamic acid.
structure (smiles),measurement,value
N[C@@H](CC(CCCF)P(=O)(O)O)C(=O)O (stereo partly drawn) [(2S)-2-Amino-7-fluoro-4-phosphonoheptanoic acid],uptake of 3H-glutamic acid,could be decreased
